Laboratory results reported in patent publication US6323202A, “HSV primase inhibitors” (Boehringer Ingelheim (Canada) Ltd., priority 2000, dated 2001).

Assays:
[1] = target: T1, HSV-1 helicase-primase (UL5(K103A) helicase-primase holoenzyme) (Human herpesvirus 1, UniProt P10189+P10236, K103A); assay: HSV-1 Helicase-primase DNA Primase Assay (incorporation of [3H]GTP into primers); format: biochemical
T1 construct: made in house; host or cells: recombinant baculovirus expression (insect cells, by own knowledge of the cited Dodson 1989 and Dracheva 1995 methods)
T1 sequence (P10189 whole entry, looked up, stated change not applied): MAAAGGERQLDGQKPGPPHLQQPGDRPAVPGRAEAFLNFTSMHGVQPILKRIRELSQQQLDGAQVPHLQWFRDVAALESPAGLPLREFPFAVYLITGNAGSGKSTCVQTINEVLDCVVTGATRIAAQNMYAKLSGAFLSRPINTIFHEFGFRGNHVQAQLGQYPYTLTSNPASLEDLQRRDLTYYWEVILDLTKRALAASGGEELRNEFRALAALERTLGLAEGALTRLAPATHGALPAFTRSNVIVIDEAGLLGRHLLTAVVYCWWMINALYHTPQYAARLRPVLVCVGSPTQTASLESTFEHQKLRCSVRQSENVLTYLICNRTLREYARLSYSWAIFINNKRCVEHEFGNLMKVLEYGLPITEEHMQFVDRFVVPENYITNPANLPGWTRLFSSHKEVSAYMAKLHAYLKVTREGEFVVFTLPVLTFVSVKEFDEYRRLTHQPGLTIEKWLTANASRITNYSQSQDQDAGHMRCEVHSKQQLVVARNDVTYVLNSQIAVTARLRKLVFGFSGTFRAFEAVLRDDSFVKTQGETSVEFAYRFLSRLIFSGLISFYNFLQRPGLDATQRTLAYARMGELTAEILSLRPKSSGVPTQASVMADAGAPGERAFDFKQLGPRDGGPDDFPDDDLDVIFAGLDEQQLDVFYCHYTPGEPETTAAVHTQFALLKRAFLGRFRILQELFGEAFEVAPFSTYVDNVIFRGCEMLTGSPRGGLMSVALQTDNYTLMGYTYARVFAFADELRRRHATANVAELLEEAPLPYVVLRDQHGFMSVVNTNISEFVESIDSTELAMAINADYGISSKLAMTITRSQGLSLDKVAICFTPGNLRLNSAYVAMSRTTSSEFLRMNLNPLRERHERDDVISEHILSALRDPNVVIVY
T1 sequence (P10192 whole entry, stated change not applied, further chain): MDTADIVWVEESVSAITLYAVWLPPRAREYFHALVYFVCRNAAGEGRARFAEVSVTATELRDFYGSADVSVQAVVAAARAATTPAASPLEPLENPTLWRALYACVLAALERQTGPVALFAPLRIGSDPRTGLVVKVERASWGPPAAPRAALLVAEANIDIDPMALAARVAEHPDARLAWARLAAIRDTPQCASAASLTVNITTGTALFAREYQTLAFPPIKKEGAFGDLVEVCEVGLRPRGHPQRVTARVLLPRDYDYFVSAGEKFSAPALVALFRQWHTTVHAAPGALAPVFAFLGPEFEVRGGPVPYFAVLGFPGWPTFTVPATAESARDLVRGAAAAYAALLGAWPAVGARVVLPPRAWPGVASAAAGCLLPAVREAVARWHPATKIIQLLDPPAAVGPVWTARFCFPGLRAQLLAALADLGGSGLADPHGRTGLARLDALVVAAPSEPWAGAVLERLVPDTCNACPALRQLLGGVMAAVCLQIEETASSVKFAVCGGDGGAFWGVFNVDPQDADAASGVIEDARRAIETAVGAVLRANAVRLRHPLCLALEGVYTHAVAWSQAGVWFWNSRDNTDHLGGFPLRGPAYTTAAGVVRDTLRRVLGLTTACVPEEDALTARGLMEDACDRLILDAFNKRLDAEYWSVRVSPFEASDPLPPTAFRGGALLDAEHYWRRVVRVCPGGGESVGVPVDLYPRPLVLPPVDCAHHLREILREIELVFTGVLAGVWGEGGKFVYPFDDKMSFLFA
T1 sequence (P10236 whole entry, stated change not applied): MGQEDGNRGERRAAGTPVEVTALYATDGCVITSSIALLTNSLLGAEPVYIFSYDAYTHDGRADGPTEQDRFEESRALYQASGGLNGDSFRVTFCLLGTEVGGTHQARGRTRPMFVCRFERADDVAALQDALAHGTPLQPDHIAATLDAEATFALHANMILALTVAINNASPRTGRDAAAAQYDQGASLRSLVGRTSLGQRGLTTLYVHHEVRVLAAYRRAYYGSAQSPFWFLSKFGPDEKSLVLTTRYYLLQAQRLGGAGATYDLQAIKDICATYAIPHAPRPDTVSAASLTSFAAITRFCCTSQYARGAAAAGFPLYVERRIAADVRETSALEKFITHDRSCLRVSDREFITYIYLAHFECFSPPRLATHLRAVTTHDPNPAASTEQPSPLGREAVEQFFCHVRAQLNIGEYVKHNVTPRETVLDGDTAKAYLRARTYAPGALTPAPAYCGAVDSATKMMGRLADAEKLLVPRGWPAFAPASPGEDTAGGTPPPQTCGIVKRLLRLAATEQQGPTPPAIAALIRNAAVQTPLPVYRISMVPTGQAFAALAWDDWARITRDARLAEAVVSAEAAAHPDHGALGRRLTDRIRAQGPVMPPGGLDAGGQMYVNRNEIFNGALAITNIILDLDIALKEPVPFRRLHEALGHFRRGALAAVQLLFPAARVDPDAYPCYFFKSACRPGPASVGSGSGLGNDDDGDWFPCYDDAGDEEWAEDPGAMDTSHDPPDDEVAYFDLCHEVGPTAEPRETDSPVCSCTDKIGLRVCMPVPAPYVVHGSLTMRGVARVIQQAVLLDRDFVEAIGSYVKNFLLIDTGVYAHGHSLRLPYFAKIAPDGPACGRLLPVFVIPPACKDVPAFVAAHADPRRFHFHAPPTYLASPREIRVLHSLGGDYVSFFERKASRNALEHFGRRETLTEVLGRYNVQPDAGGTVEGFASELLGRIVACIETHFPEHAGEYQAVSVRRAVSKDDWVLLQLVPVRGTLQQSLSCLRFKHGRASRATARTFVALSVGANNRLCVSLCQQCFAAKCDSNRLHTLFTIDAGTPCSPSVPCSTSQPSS
From the text: i) HSV-1 Helicase-primase DNA Primase Assay
The HSV-1 helicase-primase enzyme used for primase assays was expressed and isolated as described (M. S. Dodson et al., J. Biol. Chem. 1989, 264, 20835; S. Dracheva et al. J. Biol. Chem. 1995, 270, 14148) except that the UL5-expressing baculovirus was changed to express UL5(K103A). The resulting altered enzyme contained no detectable helicase, DNA-dependent ATPase, or ATPase activity. However, DNA primase activity was increased over the wild type enzyme.
Assay: DNA primase activity was measured by the incorporation of [^3 H]GTP into newly synthesized primers by the UL5(K103A) helicase-primase holoenzyme. Assays were performed using as template the 50-mer single-stranded DNA oligonucleotide 5'-CTTCTTCGGT TCCGACTAC CCCTCCCGACTGCCTATGATGTTTATCCTTT G-3'OH (SEQ ID No. 1) derived from the preferred priming site on .phi.X174 single-stranded DNA [D. J. Teney et al., J. Biol. Chem. 1995, 270, 9129-9136]. The reaction mixtures (60 μl) contained […] pH 8.0, 5 mM magnesium chloride, 1 mM DTT, 0.01 % CHAPS, 100 μM each of ATP, GTP, CTP, 10 μM [biotin]UTP, 1 μCi [^3 H]GTP (specific activity 30.8 Ci/mmol), 1 μg of the 50-mer template and 45 μg/ml of the UL5(K103A)-altered helicase-primaseholoenzyme. The samples were incubated at 34° for 45 min in a circulating waterbath and reactions were quenched by the addition of 20 μl 0.5 M EDTA pH 8. Then, 50 μl of the reaction mixtures were transferred to Millipore filtration plates (MHVB N45, 0.45 μm) containing 40 μl of immobilized avidin beads (Pierce). After incubating 30 min at room temperature on a microplate shaker, the wells were washed five times with 300 μl wash buffer (50 mM 4-(2-hydroxyethyl)-1-piperazineethanesulfonic acid (HEPES) pH 7.5 and 0.5 M NaCl) and the filter plates were aspirated to dryness. The radioactivity in each well was counted using the Topcount® after adding 100 μl Microscint® 20 (Camberra-Packard Canada, Mississauga, Ontario, Canada) to each well.
In all cases, compounds were tested in three-fold serial dilutions and the results were expressed as percent inhibition as compared to control reactions without inhibitor. IC50 (i.e., inhibitor concentration that yielded 50% inhibition of enzyme activity) values were determined from dose-response curves using SAS software (SAS Institute, Cary, N.C., USA). A non-linear regression analysis based on the Hill equation, M. Dixon and E.C. Webb Enzymes, Academic Press: New York, N.Y., USA, 1979, was applied to the percent inhibition-concentration data.
(§1) Results for assay i are expressed under the heading HSV-1, IC50 (μM). Results for assay ii are expressed under the heading HSV-1, EC50 (μM).

[2] = tested on: HSV-1; assay: Inhibition of Herpes Simplex Virus (HSV-1) Replication in Cell Culture (ELISA of glycoprotein C); format: cell-based, HSV-1 strain F or KOS; settings: Human alphaherpesvirus 1; viral replication in BHK-21 cells, MOI 0.05 PFU/cell, 24 h, 37°
Protocol: ii) Inhibition of Herpes Simplex Virus (HSV-1) Replication in Cell Culture
Assay: BHK-21 cells clone 13 (ATCC CCL10) were incubated for two days in 850 cm^2 roller bottles (2×10^7 cells/bottle) with α-MEM medium (Gibco Canada Inc., Burlington, Ontario, Canada) supplemented with 8% (v/v) fetal bovine serum (FBS, Gibco Canada, Inc.). The cells were trypsinized and then 3,000 cells in 100 μL of fresh medium were transferred into each well of a 96-well microtiter plate. The cells were incubated at 37° for a period of 3 days to reach a density of 50,000 cells per well. The cells were washed twice with 100 μL of α-MEM supplemented with 2% heat inactivated FBS and incubated for 1-2 h in 100 μL of the same medium.
Thereafter, the cells were infected with HSV-1 strain F or KOS (multiplicity of infection=0.05 PFU/cell) in 50 μL of α-MEM supplemented with 2% heat inactivated FBS. Following one hour of virus absorption at 37°, the medium was removed and the cells were washed with α-MEM supplemented with 2% heat inactivated FBS (2×100 μL). The cells were incubated with or without 100 μL of the appropriate concentration of test reagent in α-MEM medium supplemented with 2% heat inactivated FBS. After 24 h of incubation at 37°, the extent of viral replication was determined by an ELISA assay; for instance, the following assay that detects the late glycoprotein C of HSV-1.
Cells were fixed in the microtiter plate with 100 μL of 0.063% glutaraldehyde in phosphate buffered saline for 30 min at room temperature. The microtiter plate was then washed once with casein blocking solution and blocked with 200 μL of the same solution for 1 h at room temperature. Thereafter, 100 μL of mAb C11 recognizing the glycoprotein C of HSV-1 (see E. Trybala et al., Journal of General Virology, 1994, 75, 743) was added to each well for 2 h at room temperature. The plate was washed three times with phosphate buffered saline containing 0.05% polyoxyethylene (20) sorbitan monooleate. The cells were incubated with 100 μL of sheep anti-mouse IgG horseradish peroxidase for 1 h at room temperature in the dark.
The plate was washed three times with 200 μL of the above-noted phosphate buffer saline preparation, and then once with 0.1 M sodium citrate (pH 4.5). Thereafter, 100 μL of orthophenylenediamine dihydrochloride (OPD, Gibco, Canada Inc.) was added to each well. The plate was agitated on a microplate shaker for 30 min in the dark. Color development was monitored at 450 nm using a microplate spectrophotometer.
SAS was used to calculate % inhibition of viral replication and to generate EC50 values.
as §1

Structure (SMILES) | IC50 [1] | EC50 [2]
Nc1cc(Cl)ccc1C(=O)Nc1cccc(C(=O)NCc2ccccc2)c1 [Entry 107] | > 100000 nM | –
O=C(OCc1ccccn1)c1cccc(NC(=O)c2ccc(Cl)cc2O)c1 [Entry 8] | < 1000 nM | 1000 to 100000 nM
[N-]=[N+]=Nc1ccc(C(=O)Nc2cccc(C(=O)NCc3ccccc3)c2)c(O)c1 [Entry 104] | < 1000 nM | –
O=C(CCc1ccccc1)c1cccc(NC(=O)c2ccc(Cl)cc2O)c1 [Entry 7] | 1000 to 100000 nM | –
O=C(NCc1ccccn1)c1cccc(NC(=O)c2ccc(Cl)cc2O)c1 [Entry 17] | < 1000 nM | 1000 to 100000 nM
Nc1ccc(C(=O)Nc2cccc(C(=O)NCc3ccccc3)c2)c(O)c1 [Entry 108] | 1000 to 100000 nM | –
O=C(OCc1ccccc1)c1cccc(NC(=O)c2ccc(Cl)cc2O)c1 [Entry 9] | < 1000 nM | –
CCCCCC(=O)c1cccc(NC(=O)c2cccc(Cl)c2O)c1 [Entry 101] | 1000 to 100000 nM | 1000 to 100000 nM
CCCCN(C)C(=O)c1cccc(NC(=O)c2ccc(Cl)cc2O)c1 [Entry 12, N-Butyl-N-methyl-3-{(4-chloro-2-hydroxybenzoyl)amino)benzamide] | > 100000 nM | < 1000 nM
[N-]=[N+]=Nc1cc(O)c(C(=O)Nc2cccc(C(=O)NCc3ccccc3)c2)cc1I [Entry 106] | < 1000 nM | –
CCCCNC(=O)c1cccc(NC(=O)c2ccc(Cl)cc2O)c1 [Entry 16] | 1000 to 100000 nM | 1000 to 100000 nM
O=C(NCCc1ccccn1)c1cccc(NC(=O)c2ccc(Cl)cc2O)c1 [Entry 14] | 1000 to 100000 nM | 1000 to 100000 nM
O=C(NCC1CCCCC1)c1cccc(NC(=O)c2ccc(Cl)cc2O)c1 [Entry 13] | < 1000 nM | 1000 to 100000 nM
CN(CCc1ccccn1)C(=O)c1cccc(NC(=O)c2ccc(Cl)cc2O)c1 [Entry 11] | > 100000 nM | –
COc1ccc(C(=O)Nc2cccc(C(=O)NCc3ccccc3)c2)c(O)c1 [Entry 103] | < 1000 nM | –
O=C(NCc1ccncc1)c1cccc(NC(=O)c2ccc(Cl)cc2O)c1 [Entry 19] | 1000 to 100000 nM | –
O=C(NC1CCCCC1)c1cccc(NC(=O)c2ccc(Cl)cc2O)c1 [Entry 18] | 1000 to 100000 nM | < 1000 nM
O=C(NCc1ccccc1)c1cccc(NC(=O)c2ccc(Cl)cc2O)c1 [Entry 15] | < 1000 nM | 1000 to 100000 nM
Nc1ccccc1C(=O)Nc1cccc(C(=O)NCc2ccccc2)c1 [Entry 105] | > 100000 nM | –
CCCCC(C(=O)OCC)C(=O)c1cccc(NC(=O)c2ccc(Cl)cc2O)c1 (stereo not drawn) [Entry 1, Ethyl α-butyl-3-{(4chloro2-hydroxybenzoyl)amino}-β-oxobenzenepropanoate] | 1000 to 100000 nM | 1000 to 100000 nM
CCOC(=O)CC(=O)c1cccc(NC(=O)c2ccc(Cl)cc2O)c1 [Entry 3] | 1000 to 100000 nM | 1000 to 100000 nM
O=C(Nc1cccc(C(=O)C2CCCCC2)c1)c1ccc(Cl)cc1O [Entry 6] | 1000 to 100000 nM | 1000 to 100000 nM
CCCC(=O)c1cccc(NC(=O)c2ccc(Cl)cc2O)c1 [Entry 4] | 1000 to 100000 nM | 1000 to 100000 nM
O=C(Nc1cccc(C(=O)N2CCCCC2)c1)c1ccc(Cl)cc1O [Entry 10] | > 100000 nM | < 1000 nM
Cc1ccc(C(=O)Nc2cccc(C(=O)NCc3ccccc3)c2)c(O)c1 [Entry 102] | < 1000 nM | –
O=C(Cc1ccccc1)c1cccc(NC(=O)c2ccc(Cl)cc2O)c1 [Entry 5] | 1000 to 100000 nM | 1000 to 100000 nM
CC(=O)c1cccc(NC(=O)c2ccc(Cl)cc2O)c1 [Entry 2] | 1000 to 100000 nM | 1000 to 100000 nM
